Literature values as cited in patent US7892575B2, “Orodispersible pharmaceutical composition for oromucosal or sublingual administration of agomelatine” (Les Laboratoires Servier, priority 2005, dated 2011).

Settings: humans

- bioavailability by the oral route in relation to the parenteral route: very low
SMILES: COc1ccc2cccc(CCNC(C)=O)c2c1 [agomelatine, N-[2-(7-methoxy-1-naphthyl)ethyl]acetamide]
